Measurements published in the supplement of paper PMC10307832.

Legend:
Test in all cases: relative viability (nuclei count vs DMSO), 5 days (fraction); higher = more cells survive
[1] = compound: CC1=CN2C(=O)C=C(N=C2C(=C1)C(C)NC3=CC=CC=C3)N4CCOCC4 [TGX 221] + N=C(N)NC(=N)NCCc1ccccc1 [Phenformin] (partner 250 µM)
Procedure, shortened: (§1)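 Five library-drug doses in √10 steps were combined with a fixed anchor-drug dose, or a single drug was given alone, by pin tool to lung cancer cell lines in 1536-well plates the day after seeding. Nuclei were stained and counted after 5 days. Relative viability is the nuclei count in treated wells over that in vehicle wells, taken as the median of duplicate plates.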

[2] = compound: C1=CC=C(C(=C1)C2=CC=C(C=C2)C3=CSC4=C3C(=C(C(=O)N4)C#N)O)O + Cc1nc(Nc2ncc(C(=O)Nc3c(C)cccc3Cl)s2)cc(N2CCN(CCO)CC2)n1 [Dasatinib] (partner 0.075 µM)
Procedure, shortened: as §1

[3] = compound: C1=CC=C(C(=C1)C2=CC=C(C=C2)C3=CSC4=C3C(=C(C(=O)N4)C#N)O)O + COc1cccc2cc(-c3nc([C@H]4CC[C@H](C(=O)O)CC4)n4ncnc(N)c34)[nH]c12 [OSI-027] (partner 0.5 µM)
Procedure, shortened: as §1

[4] = compound: CC1=CN2C(=O)C=C(N=C2C(=C1)C(C)NC3=CC=CC=C3)N4CCOCC4 [TGX 221] + CC(=O)Nc1cccc(-n2c(=O)n(C3CC3)c(=O)c3c(Nc4ccc(I)cc4F)n(C)c(=O)c(C)c32)c1 [Trametinib] (partner 0.02 µM)
Procedure, shortened: as §1

| Cell Line | relative viability ([1]; first compound 0.08 µM) | relative viability ([1]; first compound 0.253 µM) | relative viability ([1]; first compound 0.8 µM) | relative viability ([1]; first compound 2.53 µM) | relative viability ([1]; first compound 8 µM) | relative viability ([2]; first compound 0.08 µM) | relative viability ([2]; first compound 0.253 µM) | relative viability ([2]; first compound 0.8 µM) | relative viability ([2]; first compound 2.53 µM) | relative viability ([2]; first compound 8 µM) | relative viability ([3]; first compound 0.08 µM) | relative viability ([3]; first compound 0.253 µM) | relative viability ([3]; first compound 0.8 µM) | relative viability ([3]; first compound 2.53 µM) | relative viability ([3]; first compound 8 µM) | relative viability ([4]; first compound 0.08 µM) | relative viability ([4]; first compound 0.253 µM) | relative viability ([4]; first compound 0.8 µM) | relative viability ([4]; first compound 2.53 µM) | relative viability ([4]; first compound 8 µM) |
| --- | --- | --- | --- | --- | --- | --- | --- | --- | --- | --- | --- | --- | --- | --- | --- | --- | --- | --- | --- | --- |
| NCI-H1437 | 0.315 | 0.302 | 0.252 | 0.269 | 0.335 | 0.32 | 0.363 | 0.344 | 0.456 | 0.371 | 0.869 | 1.05 | 0.868 | 0.873 | 0.703 | 0.462 | 0.448 | 0.437 | 0.38 | 0.415 |
| NCI-H1650 | 0.419 | 0.3 | 0.377 | 0.382 | 0.255 | 0.253 | 0.393 | 0.349 | 0.322 | 0.318 | 0.477 | 0.784 | 0.738 | 0.508 | 0.43 | 0.456 | 0.655 | 0.669 | 0.596 | 0.416 |
| NCI-H1651 | 0.283 | 0.265 | 0.437 | 0.316 | 0.286 | 0.386 | 0.371 | 0.436 | 0.378 | 0.26 | 0.66 | 0.76 | 0.715 | 0.576 | 0.448 | 0.809 | 0.84 | 0.756 | 0.764 | 0.73 |
| NCI-H1666 | 0.556 | 0.52 | 0.598 | 0.561 | 0.529 | 0.6 | 0.858 | 0.987 | 0.903 | 0.722 | 0.804 | 1.09 | 0.901 | 0.777 | 0.745 | 0.726 | 0.797 | 0.852 | 0.884 | 0.742 |
| NCI-H1734 | 0.379 | 0.362 | 0.395 | 0.413 | 0.406 | 0.396 | 0.474 | 0.452 | 0.489 | 0.455 | 0.642 | 0.608 | 0.618 | 0.595 | 0.432 | 0.678 | 0.602 | 0.71 | 0.66 | 0.688 |
| NCI-H1755 | 0.584 | 0.598 | 0.549 | 0.585 | 0.528 | 0.396 | 0.466 | 0.349 | 0.368 | 0.423 | 0.762 | 0.848 | 0.616 | 0.686 | 0.751 | 0.792 | 0.743 | 0.646 | 0.647 | 0.628 |
| NCI-H1793 | 0.367 | 0.256 | 0.311 | 0.25 | 0.309 | 0.356 | 0.354 | 0.419 | 0.4 | 0.326 | 0.281 | 0.378 | 0.267 | 0.263 | 0.252 | 0.462 | 0.374 | 0.398 | 0.357 | 0.306 |
| NCI-H1915 | 0.347 | 0.358 | 0.359 | 0.347 | 0.374 | 0.335 | 0.344 | – | 0.314 | 0.34 | 0.645 | 0.622 | – | 0.657 | 0.534 | 0.283 | 0.29 | 0.29 | 0.274 | 0.238 |
| NCI-H1944 | 0.188 | 0.196 | 0.191 | 0.186 | 0.184 | 0.224 | 0.248 | 0.219 | 0.178 | 0.215 | 0.39 | 0.436 | 0.336 | 0.367 | 0.4 | – | 0.367 | 0.327 | 0.401 | 0.32 |
| NCI-H1975 | 0.395 | 0.402 | 0.389 | 0.399 | 0.366 | 0.327 | 0.369 | 0.345 | 0.333 | 0.37 | 0.535 | 0.823 | 0.689 | 0.709 | 0.676 | 0.313 | 0.414 | 0.356 | 0.289 | 0.272 |
| NCI-H1993 | 0.427 | 0.568 | 0.54 | 0.517 | 0.54 | 0.619 | 0.701 | 0.596 | 0.544 | 0.549 | 0.442 | 0.539 | 0.543 | 0.595 | 0.595 | 0.797 | 0.508 | 0.526 | 0.507 | 0.529 |
| NCI-H2009 | 0.476 | 0.506 | 0.487 | 0.492 | 0.407 | 0.322 | 0.267 | 0.322 | 0.302 | 0.29 | 0.624 | 0.63 | 0.555 | 0.612 | 0.509 | 0.25 | 0.196 | 0.204 | 0.152 | 0.173 |
| NCI-H2023 | 0.431 | 0.373 | 0.397 | 0.39 | 0.288 | 0.444 | 0.521 | 0.648 | 0.55 | 0.433 | 0.32 | 0.441 | 0.404 | 0.382 | 0.317 | 0.55 | 0.397 | 0.603 | 0.469 | 0.35 |
| NCI-H2085 | 0.817 | 0.562 | 0.588 | 0.462 | 0.425 | 0.22 | 0.264 | 0.238 | 0.224 | 0.258 | 0.866 | 1.02 | 0.661 | 0.627 | 0.512 | 0.505 | 0.351 | 0.374 | 0.286 | 0.276 |
| NCI-H2087 | 0.425 | 0.455 | 0.524 | 0.472 | 0.471 | 0.67 | 0.878 | 0.969 | 0.925 | 0.703 | 0.551 | 0.772 | 0.568 | 0.57 | 0.358 | 0.168 | 0.155 | 0.211 | 0.207 | 0.217 |
| NCI-H2126 | 0.483 | 0.487 | 0.535 | 0.515 | 0.507 | 0.588 | 0.573 | 0.604 | 0.45 | 0.568 | 0.639 | 0.718 | 0.654 | 0.737 | 0.708 | 0.535 | 0.441 | 0.568 | 0.547 | 0.56 |
